The record followed here is US10308645B2, “Piperidine oxadiazole and thiadiazole orexin receptor antagonists” (MERCK SHARP & DOHME CORP., priority 2014, dated 2019).

Each structure is given as a SMILES string. Where only a bound is given, the exact number is not on record here.

By IC50 is commonly meant the concentration needed to halve the response being measured. The low end stands for inhibition by little substance, the high end for a need for much substance.

One test addresses human orexin-2 receptor (Homo sapiens (Human), UniProt O43614). In words: FLIPR Ca2+ Flux Assay, hOX2R. The test is classed as cell-based. Particulars: CHO cells expressing the receptor; agonist Ala-6,12 human orexin-A. On the procedure:
The utility of the compounds in accordance with the present invention as orexin receptor OX1R and/or OX2R antagonists may be readily determined without undue experimentation by methodology well known in the art, including the “FLIPR Ca^2+ Flux Assay” (Okumura et al., Biochem. Biophys. Res. Comm. 280:976-981, 2001). In a typical experiment the OX1 and OX2 receptor antagonistic activity of the compounds of the present invention was determined in accordance with the following experimental method. For intracellular calcium measurements, Chinese hamster ovary (CHO) cells expressing the rat orexin-1 receptor or the human orexin-2 receptor, are grown in Iscove's modified DMEM containing 2 mM L-glutamine, […], 1% hypoxanthine-thymidine supplement, 100 U/ml penicillin, 100 μg/ml streptomycin and 10% heat-inactivated fetal calf serum (FCS). The cells are seeded at 20,000 cells/well into Becton-Dickinson black 384-well clear bottom sterile plates coated with poly-D-lysine. All reagents were from GIBCO-Invitrogen Corp. The seeded plates are incubated overnight at 37° C. and 5% CO2. Ala-6,12 human orexin-A as the agonist is prepared as a 1 mM stock solution in 1% bovine serum albumin (BSA) and diluted in assay buffer (HBSS containing 20 mM HEPES, 0.1% BSA and 2.5 mM probenecid, pH7.4) for use in the assay at a final concentration of 70 pM. Test compounds are prepared as 10 mM stock solution in DMSO, then diluted in 384-well plates, first in DMSO, then assay buffer. On the day of the assay, cells are washed 3 times with 100 μl assay buffer and then incubated for 60 min (37° C., 5% CO2) in 60 μl assay buffer containing 1 μM Fluo-4AM ester, 0.02% pluronic acid, and 1% BSA. The dye loading solution is then aspirated and cells are washed 3 times with 100 μl assay buffer. 30 μl of that same buffer is left in each well. Within the Fluorescent Imaging Plate Reader (FLIPR, Molecular Devices), test compounds are added to the plate in a volume of 25 μl, incubated for 5 min and finally 25 μl of agonist is added. Fluorescence is measured for each well at 1 second intervals for 5 minutes and the height of each fluorescence peak is compared to the height of the fluorescence peak induced by […] Ala-6,12 orexin-A with buffer in place of antagonist. For each antagonist, IC50 value (the concentration of compound needed to inhibit 50% of the agonist response) is determined. Alternatively, compound potency can be assessed by a radioligand binding assay (described in Bergman et. al. Bioorg. Med. Chem. Lett. 2008, 18, 1425-1430) in which the inhibition constant (Ki) is determined in membranes prepared from CHO cells expressing either the OX1 or OX2 receptor. The intrinsic orexin receptor antagonist activity of a compound which may be used in the present invention may be determined by these assays.
(A change in cytosolic calcium serves as a functional read-out for many receptors and channels.)

For test [1], the target named is hOX1R (orexin-1 receptor) (Homo sapiens, UniProt O43613). In words: FLIPR Ca2+ Flux Assay, hOX1R. The test is classed as cell-based. Particulars: CHO cells expressing the receptor; agonist Ala-6,12 human orexin-A.

Chain of human orexin-2 receptor (O43614 whole entry): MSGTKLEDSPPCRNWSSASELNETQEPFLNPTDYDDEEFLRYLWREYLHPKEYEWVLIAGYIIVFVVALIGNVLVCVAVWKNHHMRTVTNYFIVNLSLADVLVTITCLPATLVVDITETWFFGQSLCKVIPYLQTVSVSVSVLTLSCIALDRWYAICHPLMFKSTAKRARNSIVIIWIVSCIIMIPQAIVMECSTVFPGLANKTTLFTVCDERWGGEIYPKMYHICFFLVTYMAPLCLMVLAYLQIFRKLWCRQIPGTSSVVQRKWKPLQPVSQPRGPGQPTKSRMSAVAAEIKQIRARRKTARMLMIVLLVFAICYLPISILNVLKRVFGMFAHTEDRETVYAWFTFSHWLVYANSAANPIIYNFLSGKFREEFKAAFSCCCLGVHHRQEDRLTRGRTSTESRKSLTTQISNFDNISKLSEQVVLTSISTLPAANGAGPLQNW

With `C[C@@H]1CC[C@@H](c2noc(C(C)(C)O)n2)CN1C(=O)c1cccnc1OCC(F)(F)F` [Example 16, 2-{3-[(3R,6R)-6-methyl-1-{[2-(2,2,2-trifluoroethoxy)pyridin-3-yl]carbonyl}piperidin-3-yl]-1,2,4-oxadiazol-5-yl}propan-2-ol], the IC50 at human orexin-2 receptor is 87 nM; in test [1], more than 10000 nM.

On to `C[C@@H]1CC[C@@H](c2nsc(C(C)(C)O)n2)CN1C(=O)c1cscc1-n1nccn1` [Example 31, 2-{3-[(3R,6R)-6-methyl-1-{[4-(2H-1,2,3-triazol-2-yl)thiophen-3-yl]carbonyl}piperidin-3-yl]-1,2,4-thiadiazol-5-yl}propan-2-ol], for which the IC50 was 110 nM on human orexin-2 receptor and more than 10000 nM in test [1].

Turning to `CC(C)c1noc([C@@H]2CC[C@@H](C)N(C(=O)c3ccccc3-n3nccn3)C2)n1` [Example 26, (2R,5R)-2-methyl-5-[3-(1-methylethyl)-1,2,4-oxadiazol-5-yl]-1-{[2-(2H-1,2,3-triazol-2-yl)phenyl]carbonyl}piperidine], the IC50 on human orexin-2 receptor came to 124 nM; in test [1], 4500 nM.

Turning to `C[C@@H]1CC[C@@H](c2nsc(C(C)(C)O)n2)CN1C(=O)c1ccccc1OC(F)(F)F` [Example 39, 2-{3-[(3R,6R)-6-methyl-1-{[2-(trifluoromethoxy)phenyl]carbonyl}piperidin-3-yl]-1,2,4-thiadiazol-5-yl}propan-2-ol], the IC50 on human orexin-2 receptor is 53 nM; in test [1] it was 6380 nM.

`C[C@@H]1CC[C@@H](c2noc(C(C)(C)O)n2)CN1C(=O)c1ccccc1-n1ncnn1` [Example 12, 2-{3-[(3R,6R)-6-methyl-1-{[2-(2H-tetrazol-2-yl)phenyl]carbonyl}piperidin-3-yl]-1,2,4-oxadiazol-5-yl}propan-2-ol]: the IC50 was 184 nM at human orexin-2 receptor and more than 10000 nM in test [1].

As for `C[C@@H]1CC[C@@H](c2noc([C@](C)(O)C(F)(F)F)n2)CN1C(=O)c1ccccc1-n1nccn1` [Example 6, (2S)-1,1,1-trifluoro-2-{3-[(3R,6R)-6-methyl-1-{[2-(2H-1,2,3-triazol-2-yl)phenyl]carbonyl}piperidin-3-yl]-1,2,4-oxadiazol-5-yl}propan-2-ol], the IC50 on human orexin-2 receptor was 18 nM; in test [1] it was 288 nM.

Regarding `C[C@@H]1CC[C@@H](c2nsc(C(C)(C)O)n2)CN1C(=O)c1ccccc1C1(C#N)CC1` [Example 32, 1-[2-({(2R,5R)-5-[5-(1-hydroxy-1-methylethyl)-1,2,4-thiadiazol-3-yl]-2-methylpiperidin-1-yl}carbonyl)phenyl]cyclopropane-carbonitrile], the IC50 on human orexin-2 receptor was 18 nM; in test [1], 2420 nM.

Consider `CC(C)Oc1ncccc1C(=O)N1C[C@H](c2nsc(C(C)(C)O)n2)CC[C@H]1C` [Example 30, 2-{3-[(3R,6R)-6-methyl-1-{[2-(1-methylethoxy)pyridin-3-yl]carbonyl}piperidin-3-yl]-1,2,4-thiadiazol-5-yl}propan-2-ol], for which the IC50 at human orexin-2 receptor is 298 nM; in test [1], more than 10000 nM.

For the molecule `C[C@@H]1CC[C@@H](c2nsc(C(C)(C)O)n2)CN1C(=O)c1ccsc1-c1ncccn1` [Example 40, 2-(3-{(3R,6R)-6-Methyl-1-[(2-pyrimidin-2-ylthiophen-3-yl)carbonyl]piperidin-3-yl}-1,2,4-thiadiazol-5-yl)propan-2-ol], the IC50 amounted to 50 nM at human orexin-2 receptor and 9990 nM in test [1].

As to `C[C@@H]1CC[C@@H](c2noc([C@@H](O)C(F)(F)F)n2)CN1C(=O)c1ccccc1-n1nccn1` [Example 9, (1R)-2,2,2-Trifluoro-1-{3-[(3R,6R)-6-methyl-1-{[2-(2H-1,2,3-triazol-2-yl)phenyl]carbonyl}piperidin-3-yl]-1,2,4-oxadiazol-5-yl}ethanol], the IC50 on human orexin-2 receptor was determined as 77 nM; in test [1], 1010 nM.

For `C[C@@H]1CC[C@@H](c2noc(C(C)(C)O)n2)CN1C(=O)c1ccsc1-n1nccn1` [Example 13, 2-{3-[(3R,6R)-6-methyl-1-{[2-(2H-1,2,3-triazol-2-yl)thiophen-3-yl]carbonyl}piperidin-3-yl]-1,2,4-oxadiazol-5-yl}propan-2-ol], the figures for the 50% inhibitory concentration (IC50) (at human orexin-2 receptor; in test [1]) were 39 nM and more than 10000 nM, respectively.

Take `CC(C)c1nc([C@@H]2CC[C@@H](C)N(C(=O)c3ccccc3-n3nccn3)C2)no1` [Example 4, (2R,5R)-2-methyl-5-[5-(1-methylethyl)-1,2,4-oxadiazol-3-yl]-1-{[2-(2H-1,2,3-triazol-2-yl)phenyl]carbonyl}piperidine]: the figures for the 50% inhibitory concentration (IC50) (on human orexin-2 receptor; in test [1]) were 28 nM and 699 nM, respectively.

On to `C[C@@H]1CC[C@@H](c2noc(C3CC3)n2)CN1C(=O)c1ccccc1-n1nccn1` [Example 1, (2R,5R)-5-(5-Cyclopropyl-1,2,4-oxadiazol-3-yl)-2-methyl-1-{[2-(2H-1,2,3-triazol-2-yl)phenyl]carbonyl}piperidine], for which the results for the IC50 (at human orexin-2 receptor; in test [1]) were 329 nM and more than 10000 nM, respectively.

As for `C[C@@H]1CC[C@@H](c2nc(C(C)(C)C)no2)CN1C(=O)c1ccccc1-n1nccn1` [Example 25, (2R,5R)-5-(3-tert-Butyl-1,2,4-oxadiazol-5-yl)-2-methyl-1-{[2-(2H-1,2,3-triazol-2-yl)phenyl]carbonyl}piperidine], the IC50 amounted to 87 nM on human orexin-2 receptor and 1150 nM in test [1].

As to `CCOc1ccccc1C(=O)N1C[C@H](c2nsc(C(C)(C)O)n2)CC[C@H]1C` [Example 37, 2-(3-{(3R,6R)-1-[(2-ethoxyphenyl)carbonyl]-6-methylpiperidin-3-yl}-1,2,4-thiadiazol-5-yl)propan-2-ol], the figures for the IC50 (on human orexin-2 receptor; in test [1]) were 146 nM and more than 10000 nM, respectively.

Consider `C[C@@H]1CC[C@@H](c2nsc(C(C)(C)O)n2)CN1C(=O)c1ccccc1OC(F)F` [Example 36, 2-{3-[(3R,6R)-1-{[2-(difluoromethoxy)phenyl]carbonyl}-6-methylpiperidin-3-yl]-1,2,4-thiadiazol-5-yl}propan-2-ol], for which the 50% inhibitory concentration (IC50) at human orexin-2 receptor was 243 nM; in test [1], more than 10000 nM.

`C[C@@H]1CC[C@@H](c2noc(C(C)(C)O)n2)CN1C(=O)c1ccccc1OC(F)(F)F` [Example 15, 2-{3-[(3R,6R)-6-methyl-1-{[2-(trifluoromethoxy)phenyl]carbonyl}piperidin-3-yl]-1,2,4-oxadiazol-5-yl}propan-2-ol]: the results for the concentration for half-maximal inhibition (IC50) (on human orexin-2 receptor; in test [1]) were 86 nM and more than 10000 nM, respectively.

Take `CC(C)Oc1ncccc1C(=O)N1C[C@H](c2noc(C(C)(C)O)n2)CC[C@H]1C` [Example 17, 2-{3-[(3R,6R)-6-methyl-1-{[2-(1-methylethoxy)pyridin-3-yl]carbonyl}piperidin-3-yl]-1,2,4-oxadiazol-5-yl}propan-2-ol]: the IC50 is 219 nM at human orexin-2 receptor and more than 10000 nM in test [1].

Turning to `C[C@@H]1CC[C@@H](c2noc(C(C)(C)O)n2)CN1C(=O)c1ccccc1OC(F)F` [Example 18, 2-{3-[(3R,6R)-1-{[2-(difluoromethoxy)phenyl]carbonyl}-6-methylpiperidin-3-yl]-1,2,4-oxadiazol-5-yl}propan-2-ol], the IC50 on human orexin-2 receptor was 140 nM; in test [1], more than 10000 nM.

On to `C[C@@H]1CC[C@@H](c2nsc(C(C)(C)O)n2)CN1C(=O)c1ccccc1CS(C)(=O)=O` [Example 33, 2-{3-[(3R,6R)-6-methyl-1-({2-[(methylsulfonyl)methyl]phenyl}carbonyl)piperidin-3-yl]-1,2,4-thiadiazol-5-l}propan-2-ol], for which the 50% inhibitory concentration (IC50) on human orexin-2 receptor is 194 nM; in test [1], more than 10000 nM.

With `C[C@@H]1CC[C@@H](c2noc(C(C)(C)O)n2)CN1C(=O)c1ccc(F)cc1-n1nccn1` [Example 21, 2-{3-[(3R,6R)-1-{[4-Fluoro-2-(2H-1,2,3-triazol-2-yl)phenyl]carbonyl}-6-methylpiperidin-3-yl]-1,2,4-oxadiazol-5-yl}propan-2-ol], the IC50 is 44 nM at human orexin-2 receptor and more than 10000 nM in test [1].

In the case of `C[C@@H]1CC[C@@H](c2nsc(C(C)(C)O)n2)CN1C(=O)c1cccnc1OCC(F)(F)F` [Example 38, 2-{3-[(3R,6R)-6-methyl-1-{[2-(2,2,2-trifluoroethoxy)pyridin-3-yl]carbonyl}piperidin-3-yl]-1,2,4-thiadiazol-5-yl}propan-2-ol], on human orexin-2 receptor, the IC50 came out at 124 nM.
